Measured values published in ChEMBL document CHEMBL6103615, “Thymidylate Kinase-Targeted Antimicrobial Peptides via Phage Display: A Novel Strategy against Gram-Negative Bacteria” (J Med Chem, 2025).
In brackets after ≈: the same amount, converted by molar mass. Activity calls are given as the source filed them. The calls are words filed in the database; no cut-off is given here.

Experiments:
[1] = Effect on secondary structure of compound in 50 percent TFE assessed as formation of alpha-helical conformation at 100 uM by CD analysis; assay type: physicochemical
[2] = Toxicity in ICR mouse assessed as impaired mobility at 40 mg/kg, ip measured for 30 to 4 hrs; assay type: organism-based; settings: in vivo, time 30-4 hrs
Bacteria [3] = test: Antibacterial activity against bacterial cells at pH 2 to 12; assay type: functional
Escherichia coli [4] = test: Antibacterial activity against Escherichia coli 078 incubated for 12 to 18 hrs by microbroth dilution method; assay type: functional; settings: time 12-18 hrs
[5] = Selectivity ratio of MIC for antibacterial activity against Pseudomonas aeruginosa 27853 to MIC for antibacterial activity against Escherichia coli K96; assay type: functional
[6] = Toxicity in ICR mouse assessed as change in kidney index at 10 to 40 mg/kg, ip treated for 3 days consecutively; assay type: organism-based; settings: in vivo, 72 h, dose 10-40 mg/kg, time 3 day
Escherichia coli [7] = test: Antibacterial activity against Escherichia coli K88 infected in ICR mouse model of peritoneal sepsis assessed as bacterial load reduction in spleen at 20 mg/kg, ip measured after 10 hrs; assay type: functional, organism-based
Staphylococcus aureus = test: Antibacterial activity against Staphylococcus aureus 29213 incubated for 12 to 18 hrs by microbroth dilution method; assay type: functional; settings: time 12-18 hrs
Escherichia coli [8] = test: Antibacterial activity against Escherichia coli K88 infected in ICR mouse model of peritoneal sepsis assessed as reduction in vascular bruising in liver at 20 mg/kg, ip measured after 10 hrs by H and E staining based analysis; assay type: functional, organism-based
Escherichia coli [9] = test: Induction of inner membrane permeability in Escherichia coli K88 assessed as increase in ONP level at 2 uM; assay type: functional, organism-based
[10] = Toxicity in ICR mouse assessed as change in serum BUN level at 10 to 40 mg/kg, ip treated for 3 days consecutively; assay type: organism-based; settings: in vivo, 72 h, dose 10-40 mg/kg, time 3 day
Bacteria [11] = test: Antibacterial activity against bacterial cells at pH 12; assay type: functional
Escherichia coli [12] = test: (§1) Binding affinity to 6xHis-tagged recombinant Escherichia coli TMK assessed as dissociation constant by BLI assay
[13] = as §1
Bacteria [14] = test: Antibacterial activity against bacterial cells at 100 degreeC at 1 to 64 uM incubated for 60 mins; assay type: functional, organism-based; settings: dose 1-64 µM
Escherichia coli [15] = test: Antibacterial activity against Escherichia coli K88 infected in ICR mouse model of peritoneal sepsis assessed as reduction in blood IL-6 level at 20 mg/kg, ip measured after 10 hrs; assay type: functional, organism-based
[16] = Effect on secondary structure of compound in PBS assessed as formation of alpha-helical conformation at 100 uM by CD analysis; assay type: physicochemical; settings: buffer
Enterococcus faecalis = test: Antibacterial activity against Enterococcus faecalis 29212 incubated for 12 to 18 hrs by microbroth dilution method; assay type: functional; settings: time 12-18 hrs
Escherichia coli [17] = test: Antibacterial activity against Escherichia coli K88 infected in ICR mouse model of peritoneal sepsis assessed as reduction in blood HMGB1 level at 20 mg/kg, ip measured after 10 hrs; assay type: functional, organism-based
Escherichia coli [18] = test: Antibacterial activity against Escherichia coli K88 infected in ICR mouse model of peritoneal sepsis assessed as bacterial load reduction in lung at 20 mg/kg, ip measured after 10 hrs; assay type: functional, organism-based
Escherichia coli [19] = test: Antibacterial activity against Escherichia coli K88 infected in ICR mouse model of peritoneal sepsis assessed as reduction in blood TNF-alpha level at 20 mg/kg, ip measured after 10 hrs; assay type: functional, organism-based
[20] = Selectivity ratio of MIC for antibacterial activity against Staphylococcus aureus 25923 to MIC for antibacterial activity against Escherichia coli K93; assay type: functional
Pseudomonas aeruginosa [21] = test: Antibacterial activity against Pseudomonas aeruginosa 27853 incubated for 12 to 18 hrs by microbroth dilution method; assay type: functional; settings: time 12-18 hrs
[22] = Hemolytic activity against human red blood cells at 2 to 128 uM relative to control; assay type: toxicity, cell-based, Erythrocyte; settings: dose 2-128 µM, read-out: Activity
[23] = test system: Lacticaseibacillus rhamnosus; test: Antibacterial activity against Lactobacillus rhamnosus 7469 incubated for 12 to 18 hrs by microbroth dilution method; assay type: functional; settings: time 12-18 hrs
Escherichia coli [24] = test: Induction of morphological changes in Escherichia coli K88 assessed as membrane permeability at edges at 2 uM incubated for 1 hr by TEM analysis; assay type: functional, organism-based
Escherichia coli [25] = test: Induction of morphological changes in Escherichia coli K88 assessed as membrane folding at 2 uM incubated for 1 hr by SEM analysis; assay type: functional, organism-based
Escherichia coli [26] = test: Induction of resistance development in Escherichia coli K88 at sub-MIC measured after 20 passages; assay type: functional, organism-based
[27] = Relative hydrophobic moment of compound; assay type: physicochemical
[28] = Selectivity ratio of MIC for antibacterial activity against Enterococcus faecalis 29212 to MIC for antibacterial activity against Escherichia coli K95; assay type: functional
Bacteria [29] = test: Antibacterial activity against bacterial cells at 1 to 128 uM in presence of NaCl; assay type: functional, organism-based; settings: dose 1-128 µM
[30] = Selectivity ratio of MIC for antibacterial activity against Staphylococcus epidermidis 12228 to MIC for antibacterial activity against Escherichia coli K91; assay type: functional
[31] = Selectivity ratio of MIC for antibacterial activity against Lactococcus lactis NZ9000 to MIC for antibacterial activity against Escherichia coli K88; assay type: functional
[32] = Antibacterial activity against Salmonella choleraesuis 21493 incubated for 12 to 18 hrs by microbroth dilution method; assay type: functional, Salmonella enterica subsp. enterica serovar Choleraesuis; settings: Salmonella enterica, time 12-18 hrs
[33] = Toxicity in ICR mouse assessed as change in serum ALP level at 10 to 40 mg/kg, ip treated for 3 days consecutively; assay type: organism-based; settings: in vivo, 72 h, dose 10-40 mg/kg, time 3 day
[34] = test system: Staphylococcus epidermidis; test: Antibacterial activity against Staphylococcus epidermidis 12228 incubated for 12 to 18 hrs by microbroth dilution method; assay type: functional; settings: time 12-18 hrs
Escherichia coli [35] = test: Induction of ROS generation in Escherichia coli K88 assessed as increase in fluorescence intensity incubated for 1 hr by DCFH-DA dye based analysis; assay type: functional, organism-based
[36] = Selectivity ratio of MIC for antibacterial activity against Staphylococcus aureus 29213 to MIC for antibacterial activity against Escherichia coli K94; assay type: functional
[37] = Toxicity in ICR mouse assessed as change in serum ALT level at 10 to 40 mg/kg, ip treated for 3 days consecutively; assay type: organism-based; settings: in vivo, 72 h, dose 10-40 mg/kg, time 3 day
[38] = Toxicity in ICR mouse assessed as change in liver index at 10 to 40 mg/kg, ip treated for 3 days consecutively; assay type: organism-based; settings: in vivo, 72 h, dose 10-40 mg/kg, time 3 day
Escherichia coli [39] = test: Antibacterial activity against Escherichia coli K88 infected in ICR mouse model of peritoneal sepsis assessed as reduction in edema in renal tubular epithelial cells at 20 mg/kg, ip measured after 10 hrs by H and E staining based analysis; assay type: functional, organism-based
Pseudomonas aeruginosa [40] = test: Antibacterial activity against Pseudomonas aeruginosa PAO1 incubated for 12 to 18 hrs by microbroth dilution method; assay type: functional; settings: time 12-18 hrs
[41] = Cytotoxicity against porcine IPEC-J2 cells assessed as cell viability at 128 uM incubated for 4 hrs by MTT assay relative to control; assay type: toxicity, cell-based, Sus scrofa; settings: pig, read-out: Activity
[42] = Selectivity ratio of MIC for antibacterial activity against Pseudomonas aeruginosa PAO1 to MIC for antibacterial activity against Escherichia coli K97; assay type: functional
Escherichia coli [43] = test: Antibacterial activity against Escherichia coli K88 infected in ICR mouse model of peritoneal sepsis assessed as reduction in granulocyte infiltration in lungs at 20 mg/kg, ip measured after 10 hrs by H and E staining based analysis; assay type: functional, organism-based

SMILES: CC[C@@H](C)[C@H](NC(=O)CNC(=O)[C@@H]1CCCN1C(=O)[C@H](CCCCN)NC(=O)[C@H](Cc1c[nH]c2ccccc12)NC(=O)[C@@H](NC(=O)[C@H](CCCCN)NC(=O)[C@H](CCCCN)NC(=O)[C@H](Cc1c[nH]c2ccccc12)NC(=O)[C@H](Cc1ccc(O)cc1)NC(=O)[C@H](CCCCN)NC(=O)[C@@H](NC(=O)[C@H](CC(C)C)NC(=O)[C@H](CC(N)=O)NC(=O)CNC(=O)[C@@H](N)CO)[C@@H](C)O)[C@@H](C)CC)C(=O)N[C@@H](CCCCN)C(=O)N[C@@H](CCCCN)C(=O)N[C@@H](Cc1c[nH]c2ccccc12)C(=O)N[C@H](C(=O)N[C@@H](CCCCN)C(=O)O)[C@H](C)CC
- Activity [1]: Active
- Activity [2]: Toxic
- MIC (Bacteria [3]): 2 µM (≈ 5.21 µg/mL)
- MIC (Escherichia coli [4]): 8 µM (≈ 20.8 µg/mL)
- Ratio [5]: >2
- Activity [6]: Non-toxic
- Activity (Escherichia coli [7]): Active; Activity Comparable To Colistin Treatment
- MIC (Staphylococcus aureus): 128 µM (≈ 333 µg/mL)
- Activity (Escherichia coli [8]): Active
- Activity (Escherichia coli [9]): Active
- Activity [10]: Non-toxic
- MIC (Bacteria [11]): 4 µM (≈ 10.4 µg/mL)
- Activity (Escherichia coli [12]): Dose-dependent-effect
- Kd [13]: 4.72 µM
- Activity (Bacteria [14]): Active
- Activity (Escherichia coli [15]): Active
- Activity [16]: Active
- MIC (Enterococcus faecalis): 128 µM (≈ 333 µg/mL)
- Activity (Escherichia coli [17]): Active
- Activity (Escherichia coli [18]): Active; Activity Comparable To Colistin Treatment
- Activity (Escherichia coli [19]): Active
- Ratio [20]: >2
- MIC (Pseudomonas aeruginosa [21]): 8 µM (≈ 20.8 µg/mL)
- hemolysis at up to 128 µM [22]: < 5%
- MIC [23]: 128 µM (≈ 333 µg/mL)
- Activity (Escherichia coli [24]): Active
- Activity (Escherichia coli [25]): Active
- Activity (Escherichia coli [26]): inactive
- Activity [27]: 0.583
- Ratio [28]: >2
- Activity (Bacteria [29]): inactive
- Ratio [30]: >2
- Ratio [31]: >2
- MIC [32]: 8 µM (≈ 20.8 µg/mL)
- Activity [33]: Non-toxic
- MIC [34]: 128 µM (≈ 333 µg/mL)
- Activity (Escherichia coli [35]): Dose-dependent-effect
- Ratio [36]: >2
- Activity [37]: Non-toxic
- Activity [38]: Non-toxic
- Activity (Escherichia coli [39]): Active
- MIC (Pseudomonas aeruginosa [40]): 4 µM (≈ 10.4 µg/mL)
- viability at 4 h, 128 µM [41]: > 80%
- Ratio [42]: >2
- Activity (Escherichia coli [43]): Active
